Assays:
[1] = molecular target: T1, DOXP reductoisomerase from Helicobacter pylori (Helicobacter pylori, UniProt P56139); assay: DOXP reductoisomerase inhibition (NADPH oxidation at 365 nm); assay type: biochemical; conditions: recombinant enzyme; 0.3 mM NADPH, 1 mM DOXP, pH 7.5; read-out: IC50 (nM) of DOXP reductoisomerase from Helicobacter pylori
T1 construct: made in house; host or cells: Helicobacter pylori (so in the source)
T1 sequence (P56139 1-368): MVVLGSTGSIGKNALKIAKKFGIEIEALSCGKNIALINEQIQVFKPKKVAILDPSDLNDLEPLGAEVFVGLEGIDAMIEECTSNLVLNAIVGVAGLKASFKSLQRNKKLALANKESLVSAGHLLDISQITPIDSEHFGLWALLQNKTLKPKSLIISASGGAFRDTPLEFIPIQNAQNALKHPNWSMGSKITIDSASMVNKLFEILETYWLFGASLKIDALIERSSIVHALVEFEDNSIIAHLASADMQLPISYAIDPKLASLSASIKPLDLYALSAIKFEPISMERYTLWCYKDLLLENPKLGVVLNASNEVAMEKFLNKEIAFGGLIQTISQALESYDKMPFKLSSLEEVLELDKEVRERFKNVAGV
Procedure: The DOXP reductoisomerase of Helicobacter pylori was expressed as a recombinant protein in Helicobacter pylori. The activity of DOXP reductoisomerase was determined in a batch containing 100 mM tris-HCl (pH=7.5), 1 mM MnCl2, 0.3 mM NADPH and 1 mM DOXP.
The oxidation of NADPH was here measured at 365 nm in a spectrophotometer. The inhibition studies were performed by measuring the activity of DOXP reductoisomerase in the presence of compounds 1 to 8 (see page 5) at various concentrations between 0. 1 and 100 μmol l^−1.

Plasmodium falciparum = assay: Antimalarial activity, in vitro culture, [3H]-hypoxanthine incorporation; assay type: cell-based; conditions: 72 h, asynchronous culture, 48 h + 24 h with [3H]-hypoxanthine, read-out: IC50 (nM) of malaria culture (Plasmodium falciparum)
Procedure: The antimalarial activity of substances 1 to 8 (see page 5) was determined using in vitro cultures of the causative organism of malaria, Plasmodium falciparum. 200 μl of an asynchronous Plasmodium falciparum culture with a 0.4% blood parasite content and a heamatocrit of 2% were loaded into each of the wells of a 96 well microtitre plate. A serial dilution series of the compounds was then prepared in steps of three between concentrations of 100 and 0.14 μmol l^−1. The plates were incubated at 37° C., 3% CO2 and 5% O2 over a period of 48 hours. 30 μl of medium supplemented with 27 μCi ml^−1 of [^3H]-hypoxanthine were then added to each well. After 24 hours' incubation, the parasites were harvested by filtration through glass fibre filters and the incorporated radioactivity was measured. Inhibition of parasite growth was measured as the percentage inhibition of tritium incorporation. Inhibition of parasite growth was expressed as the percentage inhibition of tritium incorporation relative to a comparison without the substance. The median inhibitory concentration (IC50) of the substance was determined by extrapolating the values.

Rice = assay: Herbicidal activity, water, pre-emergence; assay type: in vivo; conditions: Oryza sativa, Water
Procedure: (§1) Herbicidal activity is determined using standard methods.
(§2) Substances 1 to 8 listed on page 5 are again investigated.

Echinochloa = assay: Herbicidal activity, water, pre-emergence; assay type: in vivo; conditions: Water
Procedure: as §1, §2

Lepidium = assay: Herbicidal activity, water, pre-emergence; assay type: in vivo; conditions: Water
Procedure: as §1, §2

Solanum = assay: Herbicidal activity, water, pre-emergence; assay type: in vivo; conditions: Water
Procedure: as §1, §2

Cyperus esculentus [2] = assay: Herbicidal activity, soil, post-emergence; assay type: in vivo; conditions: Soil, post-emergence
Procedure: as §1, §2

Zea mays [3] = assay: Herbicidal activity, soil, post-emergence; assay type: in vivo; conditions: Soil, post-emergence
Procedure: as §1, §2

Sinapis arvensis [4] = assay: Herbicidal activity, soil, post-emergence; assay type: in vivo; conditions: Mutarda arvensis, Soil, post-emergence
Procedure: as §1, §2

Beta vulgaris [5] = assay: Herbicidal activity, soil, post-emergence; assay type: in vivo; conditions: Soil, post-emergence
Procedure: as §1, §2

Xanthium strumarium [6] = assay: Herbicidal activity, soil, post-emergence; assay type: in vivo; conditions: Soil, post-emergence
Procedure: as §1, §2

Alopecurus myosuroides [7] = assay: Herbicidal activity, soil, post-emergence; assay type: in vivo; conditions: Soil, post-emergence
Procedure: as §1, §2

Galium aperine [8] = assay: Herbicidal activity, soil, post-emergence; assay type: in vivo; conditions: Soil, post-emergence
Procedure: as §1, §2

Avena fatua [9] = assay: Herbicidal activity, soil, post-emergence; assay type: in vivo; conditions: Soil, post-emergence
Procedure: as §1, §2

Amaranthus retroflexus [10] = assay: Herbicidal activity, soil, post-emergence; assay type: in vivo; conditions: Soil, post-emergence
Procedure: as §1, §2

Abutilon theophrasti [11] = assay: Herbicidal activity, soil, post-emergence; assay type: in vivo; conditions: Soil, post-emergence
Procedure: as §1, §2

Setaria viridis [12] = assay: Herbicidal activity, soil, post-emergence; assay type: in vivo; conditions: Soil, post-emergence
Procedure: as §1, §2

Cyperus esculentus [13] = assay: Herbicidal activity, soil, pre-emergence; assay type: in vivo; conditions: Soil, pre-emergence
Procedure: as §1, §2

Zea mays [14] = assay: Herbicidal activity, soil, pre-emergence; assay type: in vivo; conditions: Soil, pre-emergence
Procedure: as §1, §2

Sinapis arvensis [15] = assay: Herbicidal activity, soil, pre-emergence; assay type: in vivo; conditions: Mutarda arvensis, Soil, pre-emergence
Procedure: as §1, §2

Beta vulgaris [16] = assay: Herbicidal activity, soil, pre-emergence; assay type: in vivo; conditions: Soil, pre-emergence
Procedure: as §1, §2

Xanthium strumarium [17] = assay: Herbicidal activity, soil, pre-emergence; assay type: in vivo; conditions: Soil, pre-emergence
Procedure: as §1, §2

Alopecurus myosuroides [18] = assay: Herbicidal activity, soil, pre-emergence; assay type: in vivo; conditions: Soil, pre-emergence
Procedure: as §1, §2

Galium aperine [19] = assay: Herbicidal activity, soil, pre-emergence; assay type: in vivo; conditions: Soil, pre-emergence
Procedure: as §1, §2

Avena fatua [20] = assay: Herbicidal activity, soil, pre-emergence; assay type: in vivo; conditions: Soil, pre-emergence
Procedure: as §1, §2

Amaranthus retroflexus [21] = assay: Herbicidal activity, soil, pre-emergence; assay type: in vivo; conditions: Soil, pre-emergence
Procedure: as §1, §2

Abutilon theophrasti [22] = assay: Herbicidal activity, soil, pre-emergence; assay type: in vivo; conditions: Soil, pre-emergence
Procedure: as §1, §2

Setaria viridis [23] = assay: Herbicidal activity, soil, pre-emergence; assay type: in vivo; conditions: Soil, pre-emergence
Procedure: as §1, §2

[24] = 2000 gram/hectare, read-out: Herbicidal activity, Cyperus esculentus
[25] = 2000 gram/hectare, read-out: Herbicidal activity, Zea mays
[26] = 2000 gram/hectare, read-out: Herbicidal activity, Sinapis arvensis
[27] = 2000 gram/hectare, read-out: Herbicidal activity, Beta vulgaris
[28] = 2000 gram/hectare, read-out: Herbicidal activity, Xanthium strumarium
[29] = 2000 gram/hectare, read-out: Herbicidal activity, Alopecurus myosuroides
[30] = 2000 gram/hectare, read-out: Herbicidal activity, Galium aperine
[31] = 2000 gram/hectare, read-out: Herbicidal activity, Avena fatua
[32] = 2000 gram/hectare, read-out: Herbicidal activity, Amaranthus retroflexus
[33] = 2000 gram/hectare, read-out: Herbicidal activity, Abutilon theophrasti
[34] = 2000 gram/hectare, read-out: Herbicidal activity, Setaria viridis

CP(C)(=O)CNCN(O)C(=O)c1ccccc1 [Compound 2, N-(N-Benzoyl-N-hydroxyaminomethyl)aminomethyldimethylphosphine oxide]
IC50 [1]: 60 nM
IC50 (Plasmodium falciparum): 420 nM
plant injury at 1000 g/ha (Rice; 1000 gram/hectare): 30%
pest or weed control at 1000 g/ha (Echinochloa; 1000 gram/hectare): 0%
pest or weed control at 1000 g/ha (Lepidium; 1000 gram/hectare): 30%
pest or weed control at 1000 g/ha (Solanum; 1000 gram/hectare): 0%
pest or weed control at 500 g/ha (Cyperus esculentus [2]; 500 gram/hectare): 0%
plant injury at 500 g/ha (Zea mays [3]; 500 gram/hectare): 70%
pest or weed control at 500 g/ha (Sinapis arvensis [4]; 500 gram/hectare): 80%
plant injury at 500 g/ha (Beta vulgaris [5]; 500 gram/hectare): 50%
pest or weed control at 500 g/ha (Xanthium strumarium [6]; 500 gram/hectare): 50%
pest or weed control at 500 g/ha (Alopecurus myosuroides [7]; 500 gram/hectare): 60%
pest or weed control at 500 g/ha (Galium aperine [8]; 500 gram/hectare): 60%
pest or weed control at 500 g/ha (Avena fatua [9]; 500 gram/hectare): 70%
pest or weed control at 500 g/ha (Amaranthus retroflexus [10]; 500 gram/hectare): 0%
pest or weed control at 500 g/ha (Abutilon theophrasti [11]; 500 gram/hectare): 50%
pest or weed control at 500 g/ha (Setaria viridis [12]; 500 gram/hectare): 90%
pest or weed control at 500 g/ha (Cyperus esculentus [13]; 500 gram/hectare): 0%
plant injury at 500 g/ha (Zea mays [14]; 500 gram/hectare): 0%
pest or weed control at 500 g/ha (Sinapis arvensis [15]; 500 gram/hectare): 60%
plant injury at 500 g/ha (Beta vulgaris [16]; 500 gram/hectare): 50%
pest or weed control at 500 g/ha (Xanthium strumarium [17]; 500 gram/hectare): 0%
pest or weed control at 500 g/ha (Alopecurus myosuroides [18]; 500 gram/hectare): 0%
pest or weed control at 500 g/ha (Galium aperine [19]; 500 gram/hectare): 0%
pest or weed control at 500 g/ha (Avena fatua [20]; 500 gram/hectare): 0%
pest or weed control at 500 g/ha (Amaranthus retroflexus [21]; 500 gram/hectare): 0%
pest or weed control at 500 g/ha (Abutilon theophrasti [22]; 500 gram/hectare): 0%
pest or weed control at 500 g/ha (Setaria viridis [23]; 500 gram/hectare): 0%

CN(CC(=O)P(C)(C)=O)CN(O)C(=O)C(F)(F)F [Compound 7, 2-(N-(N-Trifluoracetyl-N-hydroxyaminomethyl)-N-methyl)amino-1-oxoethyldimethylphosphine oxide]
IC50 [1]: 300 nM
IC50 (Plasmodium falciparum): 1100 nM
plant injury at 4000 g/ha (Rice; 4000 gram/hectare, read-out: Herbicidal activity, Rice): 30%
pest or weed control at 4000 g/ha (Echinochloa; 4000 gram/hectare, read-out: Herbicidal activity, Echinochloa): 40%
pest or weed control at 4000 g/ha (Lepidium; 4000 gram/hectare, read-out: Herbicidal activity, Lepidium): 40%
pest or weed control at 4000 g/ha (Solanum; 4000 gram/hectare, read-out: Herbicidal activity, Solanum): 30%
pest or weed control at 2000 g/ha (Cyperus esculentus [2]; [24]): 0%
plant injury at 2000 g/ha (Zea mays [3]; [25]): 70%
pest or weed control at 2000 g/ha (Sinapis arvensis [4]; [26]): 70%
plant injury at 2000 g/ha (Beta vulgaris [5]; [27]): 50%
pest or weed control at 2000 g/ha (Xanthium strumarium [6]; [28]): 90%
pest or weed control at 2000 g/ha (Alopecurus myosuroides [7]; [29]): 80%
pest or weed control at 2000 g/ha (Galium aperine [8]; [30]): 70%
pest or weed control at 2000 g/ha (Avena fatua [9]; [31]): 80%
pest or weed control at 2000 g/ha (Amaranthus retroflexus [10]; [32]): 50%
pest or weed control at 2000 g/ha (Abutilon theophrasti [11]; [33]): 50%
pest or weed control at 2000 g/ha (Setaria viridis [12]; [34]): 90%
pest or weed control at 2000 g/ha (Cyperus esculentus [13]; [24]): 0%
plant injury at 2000 g/ha (Zea mays [14]; [25]): 30%
pest or weed control at 2000 g/ha (Sinapis arvensis [15]; [26]): 30%
plant injury at 2000 g/ha (Beta vulgaris [16]; [27]): 70%
pest or weed control at 2000 g/ha (Xanthium strumarium [17]; [28]): 0%
pest or weed control at 2000 g/ha (Alopecurus myosuroides [18]; [29]): 30%
pest or weed control at 2000 g/ha (Galium aperine [19]; [30]): 0%
pest or weed control at 2000 g/ha (Avena fatua [20]; [31]): 30%
pest or weed control at 2000 g/ha (Amaranthus retroflexus [21]; [32]): 20%
pest or weed control at 2000 g/ha (Abutilon theophrasti [22]; [33]): 0%
pest or weed control at 2000 g/ha (Setaria viridis [23]; [34]): 0%

— patent publication US20030144249A1, “Use of organophosphorous compounds for producing a medicament for treating infections” (priority 2000, published 2003)
